These results are taken from PMC12693419, “Design, Synthesis, Biological Evaluation, and In Silico Studies of Novel Multitarget Cinnamic Acid Hybrids” (Molecules, 2025).

Data set [1] is described as follows: In vitro inhibition of linoleic acid lipid peroxidation (AAPH). Conditions: 100 μM; anti-lipid peroxidation. An excerpt:
In the present study, the aim was to evaluate the anti-lipid peroxidation activities of the synthesized compounds 5a–i, 6a–i, 9a–i, and 11 and compare their efficacy to that of Trolox, a well-known antioxidant. Using the water-soluble compound 2,2′-azobis(2-amidinopropane) hydrochloride (AAPH), peroxyl radicals are generated through spontaneous thermal decomposition in vitro. This experimental setup imitated the lipid peroxidation processes occurring in cells due to radical activity allowing the investigation of the effectiveness of the tested compounds under conditions resembling cellular oxidative stress.
An in vitro assay was performed following previously established protocols. The compound 2,2′-Azobis(2-methylpropionamidine) dihydrochloride (AAPH) was used as a controlled source of thermally generated alkylperoxy free radicals. The formation of conjugated diene hydroperoxides through the oxidation of sodium linoleate in an aqueous dispersion at 37 °C was measured by monitoring absorbance at 234 nm. The results were compared with the reference compound, Trolox (93%) (Table 6).

Data set [2] addresses T1, soybean lipoxygenase isoenzyme-1 (SLOX-1) (Glycine max, UniProt P08170).
T1 construct: purchased Merck and Sigma-Aldrich
T1 sequence (P08170 1-839): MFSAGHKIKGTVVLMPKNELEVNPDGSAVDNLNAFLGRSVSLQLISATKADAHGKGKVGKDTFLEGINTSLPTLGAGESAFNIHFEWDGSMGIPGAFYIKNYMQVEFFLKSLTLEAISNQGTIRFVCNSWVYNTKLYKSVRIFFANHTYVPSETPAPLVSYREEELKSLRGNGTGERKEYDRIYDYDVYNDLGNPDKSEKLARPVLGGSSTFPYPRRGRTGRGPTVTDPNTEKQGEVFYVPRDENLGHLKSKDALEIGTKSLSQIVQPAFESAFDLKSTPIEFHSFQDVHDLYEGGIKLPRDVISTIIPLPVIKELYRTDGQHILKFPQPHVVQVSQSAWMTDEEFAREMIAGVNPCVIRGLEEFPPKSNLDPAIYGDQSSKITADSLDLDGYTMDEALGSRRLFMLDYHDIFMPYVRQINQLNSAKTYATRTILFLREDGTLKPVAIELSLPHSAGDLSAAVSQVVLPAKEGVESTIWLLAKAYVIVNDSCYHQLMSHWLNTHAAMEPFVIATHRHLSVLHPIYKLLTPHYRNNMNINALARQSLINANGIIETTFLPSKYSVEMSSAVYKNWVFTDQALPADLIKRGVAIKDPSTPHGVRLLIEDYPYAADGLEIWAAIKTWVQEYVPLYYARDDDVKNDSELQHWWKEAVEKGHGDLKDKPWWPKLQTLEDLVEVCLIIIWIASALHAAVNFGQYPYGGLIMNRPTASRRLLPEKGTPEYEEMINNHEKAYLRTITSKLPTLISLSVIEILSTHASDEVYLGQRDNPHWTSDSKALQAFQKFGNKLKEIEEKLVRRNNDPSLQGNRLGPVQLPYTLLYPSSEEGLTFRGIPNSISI
Briefly: In vitro inhibition of soybean lipoxygenase. In kind it is biochemical. Conditions: for IC50: pH 9.0, read-out: LOX Inh. IC50; for LOX Inh. IC50: pH 9.0. On the procedure: In vitro anti-LOX activities were evaluated using soybean lipoxygenase isoenzyme-1 (SLOX-1), a commonly used model for mammalian LOXs.
An in vitro study was conducted following a previously reported method. The tested compounds were dissolved in DMSO (100 µM) and incubated at room temperature with 0.1 mL of sodium linoleate as the substrate and 0.2 mL of soybean lipoxygenase solution in Tris-HCl buffer (pH 9.0).

The nature of data set [3]: In vitro determination of NO release with Griess reagent. Conditions: 100 μM, L-cysteine, pH 7.4, 37 °C, 60 min. From the text:
This assay evaluates the ability of nitrate esters to release nitric oxide (NO). First, sodium nitroprusside (SNP) reacts with the thiol compound, cysteine, which serves as a reducing agent (Scheme 5). The thiol donates electrons, facilitating the breakdown of the nitroprusside complex. Afterwards, the reaction leads to the formation of intermediate complexes, such as nitrosothiol species and the decomposition of these intermediates results in the release of nitric oxide (NO). According to the literature, measurements are conducted both in the presence and absence of the thiol agent, cysteine. No significant difference was observed between the two experimental conditions, and the results were reproducible. Sodium nitroprusside (SNP) was used as the reference compound [65].
The compounds (from a 10 mM stock solution in DMSO, final concentration 100 μM) are added (20 μL) to each test tube. Then, 2 mL of phosphate buffer solution (pH 7.4) is added. L-cysteine, used as the thiol agent, is added to the mixture at a final concentration of 0.5 mM. The solution is incubated at 37 °C for 60 min, after which 1 mL is removed and mixed with 250 μL of Griess reagent (4 g sulfanilamide, 0.2 g N-(1-naphthyl)-ethylenediamine dihydrochloride, and 10 mL of H3PO4 solution, final volume adjusted to 100 mL). The mixture is allowed to stand for 10 min at room temperature, and the absorbance of the produced compound is measured at 540 nm. Sodium nitroprusside (SNP) is used as the reference compound. The results are presented as the release of NO2^− (% NO2^− (mol/mol)) induced by the compounds in the presence of L-cysteine (Table 6).
(Griess reagent forms a coloured azo dye with nitrite.)

In data set [4] the target is T2, bovine serum albumin (Bos taurus, UniProt P02769).
T2 construct: bovine serum albumin solution (fraction V); purchased Merck and Sigma-Aldrich; host or cells: bovine serum (fraction V)
T2 sequence (P02769 25-607): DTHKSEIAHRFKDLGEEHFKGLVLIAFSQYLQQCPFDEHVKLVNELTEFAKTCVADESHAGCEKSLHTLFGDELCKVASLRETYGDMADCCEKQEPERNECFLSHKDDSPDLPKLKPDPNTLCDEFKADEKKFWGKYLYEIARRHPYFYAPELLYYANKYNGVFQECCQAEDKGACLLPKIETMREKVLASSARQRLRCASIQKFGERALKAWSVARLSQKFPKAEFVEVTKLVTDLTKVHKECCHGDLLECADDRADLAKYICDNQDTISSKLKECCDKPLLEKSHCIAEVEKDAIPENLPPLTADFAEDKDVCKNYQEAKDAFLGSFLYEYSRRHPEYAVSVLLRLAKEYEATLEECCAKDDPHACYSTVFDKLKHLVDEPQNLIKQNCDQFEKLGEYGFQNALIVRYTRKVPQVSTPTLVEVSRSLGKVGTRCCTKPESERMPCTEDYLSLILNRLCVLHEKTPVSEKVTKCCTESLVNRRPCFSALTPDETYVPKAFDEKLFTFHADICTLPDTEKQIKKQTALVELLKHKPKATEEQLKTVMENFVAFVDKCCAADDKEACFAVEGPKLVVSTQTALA
Briefly: In vitro inhibition of albumin denaturation. Conditions: heat denaturation, 60 °C 10 min. On the procedure:
The ability of a compound to inhibit the thermal denaturation of albumin is considered an indicator of anti-inflammatory activity. Heat exposure simulates conditions of cellular stress or inflammation, during which protein and tissue damage occur. Certain substances can protect proteins from denaturation upon heating by stabilizing their structure and preventing aggregation and precipitation.
Inhibition of albumin denaturation was measured following the reported method. In a test tube, 1 mL of bovine serum albumin solution (fraction V, 1% w/v in phosphate buffer, pH 7.4) and 100 μL of the test compound solution were added sequentially. The mixture was incubated at 37 °C for 15 min, followed by heating at 60 °C for 10 min. After cooling to room temperature, the absorbance was measured at 660 nm. DMSO was used as the blank, and the results were compared to acetylsalicylic acid, which served as the reference compound (Table 6).

The target of data set [5] is T3, ovine COX-2 (Ovis aries, UniProt P79208).
T3 sequence (P79208 17-603): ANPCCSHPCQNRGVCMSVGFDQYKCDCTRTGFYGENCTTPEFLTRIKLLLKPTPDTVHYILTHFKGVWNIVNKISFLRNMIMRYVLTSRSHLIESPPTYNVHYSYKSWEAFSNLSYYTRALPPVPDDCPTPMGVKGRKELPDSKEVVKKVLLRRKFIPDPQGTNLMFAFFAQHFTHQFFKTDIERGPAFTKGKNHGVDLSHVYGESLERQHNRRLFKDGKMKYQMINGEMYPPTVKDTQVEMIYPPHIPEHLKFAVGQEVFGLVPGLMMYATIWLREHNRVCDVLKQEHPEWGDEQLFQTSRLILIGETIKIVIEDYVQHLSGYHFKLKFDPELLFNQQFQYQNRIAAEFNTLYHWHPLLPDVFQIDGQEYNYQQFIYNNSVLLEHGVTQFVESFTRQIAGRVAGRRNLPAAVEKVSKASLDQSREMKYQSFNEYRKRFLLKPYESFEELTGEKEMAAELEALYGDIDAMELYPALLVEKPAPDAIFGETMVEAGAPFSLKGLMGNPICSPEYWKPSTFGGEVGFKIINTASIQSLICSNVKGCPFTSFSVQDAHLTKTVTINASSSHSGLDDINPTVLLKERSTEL
Briefly: In vitro inhibition of ovine cyclooxygenase-2.
Description: In order to prevent this in the in vitro experiment used for testing COX inhibition activity of the new molecules, a co-substrate like N,N,N′,N′-tetramethyl-p-phenylenediamine (TMPD) is included, as it undergoes co-oxidation by PGG2. The oxidized TMPD has a maximum absorbance at 590 nm. […] To ensure maximum enzyme activity, heme is added to the reaction mixture during the in vitro assay for ovine COX-2 inhibition and COX-1 inhibition [63].
The in vitro COX-2 inhibitory activity was assessed using arachidonic acid (AA) as a substrate and N,N,N′,N′-tetramethyl-p-phenylenediamine (TMPD) as a co-substrate in a Tris-HCl buffer (pH 8.5), following the reported method [89]. To the test tube, 10 µL of the compound dissolved in DMSO was added to a mixture containing 730 µL of Tris-HCl buffer (pH 8.5), 50 µL of heme, 10 µL of COX-2 enzyme, and 100 µL of TMPD. The absorbance was measured at 590 nm. […] A blank determination was conducted as a negative control.

What is called IC50 is the midpoint of a concentration-inhibition curve. As to `C/C(=N\O)c1ccc(NC(=O)COC(=O)C=Cc2ccccc2)cc1` [Compound 6a, 2-((4-((E)-1-(Hydroxyimino)ethyl)phenyl)amino)-2-oxoethyl cinnamate], in data set [1], the “AAPH Inh. at 100 μΜ” value is on record as 50.2%. Further, the IC50 in data set [2] was determined as 50 µM; in data set [5], 100 µM. For the same compound, the “%NO2^− Release mol/mol at 100 μΜ” value in data set [3] is “no activity and no”. Moreover, the “Albumin (inhibition of albumin denaturation)” value in data set [4] is “no”.
As to `Cc1c(C)c2c(c(C)c1O)CCC(C)(C(=O)O)O2` (centres unmarked) [Trolox, reference compound], in data set [1], the “AAPH Inh. at 100 μΜ” value is on record as 93%.
In the case of `CC(=O)c1ccc(NC(=O)COC(=O)C=Cc2ccccc2)cc1` [Compound 5a, 2-((4-Acetylphenyl)amino)-2-oxoethyl Cinnamate], the “AAPH Inh. at 100 μΜ” value in data set [1] turned out to be 31.9%. In data set [2], the “LOX Inh. IC50” value is “no”.
For the compound `O=C(C=Cc1cccc2ccccc12)OCc1c(-c2ccccc2)no[n+]1[O-]` [Compound 9b, 3-(((3-(Naphthalen-1-yl)acryloyl)oxy)methyl)-4-phenyl-1,2,5-oxadiazole 2-oxide], the “AAPH Inh. at 100 μΜ” value in data set [1] is 84%. Besides, the “LOX Inh. IC50” value in data set [2] is recorded as “no”. Also, in data set [3], the “%NO2^− Release mol/mol at 100 μΜ” value is given as 1.2%. In addition, the “Albumin (inhibition of albumin denaturation)” value in data set [4] is listed as “no”. Also, the “COX-2 Inh. IC50” value in data set [5] is reported as “no”.
With `CC(=O)c1ccc(NC(=O)COC(=O)/C=C/c2ccco2)cc1` [Compound 5d, 2-((4-Acetylphenyl)amino)-2-oxoethyl (E)-3-(furan-2-yl)acrylate], the “AAPH Inh. at 100 μΜ” value in data set [1] was “no”. In addition, in data set [2], the “LOX Inh. IC50” value is reported as “no”.
Turning to `O=C(C=Cc1ccccc1)OCc1c(-c2ccccc2)no[n+]1[O-]` [Compound 9a, 3-((Cinnamoyloxy)methyl)-4-phenyl-1,2,5-oxadiazole 2-oxide], the “AAPH Inh. at 100 μΜ” value in data set [1] is listed as 91.6%. For the same compound, the IC50 in data set [2] came to 3.5 µM. The “%NO2^− Release mol/mol at 100 μΜ” value in data set [3] was 20%. In addition, the “Albumin (inhibition of albumin denaturation)” value in data set [4] is listed as “no”. Further, in data set [5], the “COX-2 Inh. IC50” value is “no”.
As to `CC(=O)c1ccc(NC(=O)COC(=O)/C=C/c2cccc3ccccc23)cc1` [Compound 5b, 2-((4-Acetylphenyl)amino)-2-oxoethyl (E)-3-(naphthalen-1-yl)acrylate], the “AAPH Inh. at 100 μΜ” value in data set [1] is “inactive and no”. The IC50 in data set [2] was found to be 57.5 µM.
Take `CC(=O)c1ccc(NC(=O)COC(=O)/C(=C/c2cccs2)c2ccccc2)cc1` [Compound 5i, 2-((4-Acetylphenyl)amino)-2-oxoethyl (E)-2-phenyl-3-(thiophen-2-yl)acrylate]: the “AAPH Inh. at 100 μΜ” value in data set [1] worked out at 77%. Further, in data set [2], the “LOX Inh. IC50” value is “no”.
`CC(=O)c1ccc(NC(=O)COC(=O)/C(=C/c2ccccc2)c2ccccc2)cc1` [Compound 5g, 2-((4-Acetylphenyl)amino)-2-oxoethyl (E)-2,3-diphenylacrylate]: the “AAPH Inh. at 100 μΜ” value in data set [1] is listed as 94.7%. For the same compound, the “LOX Inh. IC50” value in data set [2] is given as “no”.
For `O=C(O)/C=C/c1ccccc1` [Cinnamic acid], in data set [1], the “AAPH Inh. at 100 μΜ” value worked out at 78%.
Take `C/C(=N\O)c1ccc(NC(=O)COC(=O)/C(=C/c2cccc3ccccc23)c2ccccc2)cc1` [Compound 6h, 2-((4-((E)-1-(Hydroxyimino)ethyl)phenyl)amino)-2-oxoethyl (E)-3-(naphthalen-1-yl)-2-phenylacrylate]: the “AAPH Inh. at 100 μΜ” value in data set [1] came to 97.7%. Also, the IC50 in data set [2] is 62.5 µM. Also, in data set [3], the “%NO2^− Release mol/mol at 100 μΜ” value was “no activity and no”. The “Albumin (inhibition of albumin denaturation)” value in data set [4] was “no”.
As for `CC(=O)Oc1ccccc1C(=O)O` [Acetylsalicylic acid, acetylsalicylic acid, reference compound], the “Albumin (inhibition of albumin denaturation)” value in data set [4] amounted to 31%.
Take `CC(=O)c1ccc(NC(=O)COC(=O)/C=C/c2cc3ccccc3o2)cc1` [Compound 5f, 2-((4-Acetylphenyl)amino)-2-oxoethyl (E)-3-(benzofuran-2-yl)acrylate]: the “AAPH Inh. at 100 μΜ” value in data set [1] is recorded as 39%. For the same compound, the IC50 in data set [2] turned out to be 80 µM.
As to `CC(=O)c1ccc(NC(=O)COC(=O)/C=C/c2cccs2)cc1` [Compound 5c, 2-((4-Acetylphenyl)amino)-2-oxoethyl (E)-3-(thiophen-2-yl)acrylate], the “AAPH Inh. at 100 μΜ” value in data set [1] worked out at 29%. Besides, in data set [2], the “LOX Inh. IC50” value is “no”.
Consider `C/C(=N\O)c1ccc(NC(=O)COC(=O)/C(=C/c2ccccc2)c2ccccc2)cc1` [Compound 6g, 2-((4-((E)-1-(Hydroxyimino)ethyl)phenyl)amino)-2-oxoethyl (E)-2,3-diphenylacrylate], for which, in data set [1], the “AAPH Inh. at 100 μΜ” value was found to be 89%. Also, the IC50 in data set [2] is 44 µM. Further, in data set [3], the “%NO2^− Release mol/mol at 100 μΜ” value is “no activity and no”. The “Albumin (inhibition of albumin denaturation)” value in data set [4] is listed as “no”.
Turning to `CC(=O)c1ccc(NC(=O)COC(=O)/C(=C/c2cccc3ccccc23)c2ccccc2)cc1` [Compound 5h, 2-((4-Acetylphenyl)amino)-2-oxoethyl (E)-3-(naphthalen-1-yl)-2-phenylacrylate], in data set [1], the “AAPH Inh. at 100 μΜ” value was found to be 75.8%. Moreover, in data set [2], the IC50 came to 33 µM.
In the case of `CC(=O)c1ccc(NC(=O)COC(=O)/C=C/c2cc3ccccc3s2)cc1` [Compound 5e, 2-((4-Acetylphenyl)amino)-2-oxoethyl (E)-3-(benzo[b]thiophen-2-yl)acrylate], the “AAPH Inh. at 100 μΜ” value in data set [1] is “no”. For the same compound, the “LOX Inh. IC50” value in data set [2] was “no”.
